Data reported in US20240285543A1, “NANOPARTICLE-MEDIATED ENHANCEMENT OF IMMUNOTHERAPY TO PROMOTE FERROPTOSIS-INDUCED CYTOTOXICITY AND ANTITUMOR IMMUNE RESPONSES” (Memorial Sloan-Kettering Cancer Center, priority 2021, published 2024).

Experiments:
[1] = target: T1, PSMA (Homo sapiens, UniProt Q04609)
From the text: Table printed on a drawing sheet, FIG. 25
(§1) Head of the field: IC50 (M)
The patent's description of the figure: FIG. 25 show PSMA-targeting peptide-linkers, according to embodiments of the present disclosure.
Where the first naming reader finds the target: head: PSMA-Targeting Peptide-Linker Sequences
Target sequence in this assay (Q04609 whole entry, looked up): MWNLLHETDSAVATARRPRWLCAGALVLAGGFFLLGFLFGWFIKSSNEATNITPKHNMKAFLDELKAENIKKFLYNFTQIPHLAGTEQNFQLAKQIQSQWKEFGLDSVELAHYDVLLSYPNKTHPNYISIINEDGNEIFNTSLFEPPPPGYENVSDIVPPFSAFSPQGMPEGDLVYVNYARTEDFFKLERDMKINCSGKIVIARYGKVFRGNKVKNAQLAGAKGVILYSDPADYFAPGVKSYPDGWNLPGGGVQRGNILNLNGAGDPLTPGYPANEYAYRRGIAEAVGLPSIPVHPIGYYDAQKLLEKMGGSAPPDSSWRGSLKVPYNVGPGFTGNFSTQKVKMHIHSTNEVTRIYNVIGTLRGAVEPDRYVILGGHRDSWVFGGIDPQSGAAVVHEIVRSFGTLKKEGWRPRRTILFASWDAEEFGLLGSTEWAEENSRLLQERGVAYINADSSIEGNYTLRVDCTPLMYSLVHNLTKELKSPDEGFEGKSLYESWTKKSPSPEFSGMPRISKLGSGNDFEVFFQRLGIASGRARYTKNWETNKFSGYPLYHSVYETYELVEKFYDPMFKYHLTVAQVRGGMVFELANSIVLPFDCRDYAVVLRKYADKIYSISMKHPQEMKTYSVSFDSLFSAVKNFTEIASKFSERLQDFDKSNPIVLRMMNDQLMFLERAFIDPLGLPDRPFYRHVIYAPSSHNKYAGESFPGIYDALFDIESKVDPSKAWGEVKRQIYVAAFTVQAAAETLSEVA

[2] = target: T1, PSMA; parameters: compiled for 40 patients treated with ^225Ac-PSMA-617; host or cells: patients (mCRPC); details: cited from earlier work; for clinical response: mCRPC patients
Target sequence in this assay (Q04609 whole entry): as the sequence (Q04609 whole entry, looked up) above

[3] = system: B16-F10 tumors; assay: B16-F10 melanoma tumor growth inhibition and TME analysis; assay type: in vivo, mice
From the text: FIGS. 15A-15C show C′ dots inhibit melanoma tumor growth via ferroptotic induction and pro-inflammatory responses. […] Data represents analyses of n=4 mice per group, mean±s.e.m. *p<0.05 (non-parametric 2-way ANOVA).
Data represent mean±s.e.m. **** saline-PD1: P=0.0001; **** saline-alpha-MSH: P=0.0001; **** saline-(anti-PD1+alpha-MSH): P<0.0001; **PD1-(anti-PD1+alpha-MSH): P=0.0017; **alpha-MSH-(anti-PD1+alpha-MSH): P=0.0017.
The present example describes a statistically significant and marked drop in tumor volume (red curve) to nearly 65% of control values (blue curve) following a multiple, high-dose (60 μM) regimen of i.v.-injected αMSH-PEG-C′ dots in B16-F10 mice when tumors reached […]. […] To evaluate the extent of immune cell infiltration, IHC was performed to assess for Iba1, CD3, CD4, and CD8 expression, with results graphically depicted in FIG. 15C. […]
Particles have been either injected as multiple doses (n=3) alone or concomitantly with either the first three doses (“early”, on days 7, 10, and 13) or the final three doses (“late”, on days 16, 19, and 22) of anti-PD-1 (250 μg/mouse), anti-CTLA4 (100 μg/mouse), or anti-PD-1+anti-CTLA4 antibody regimens (see FIG. 12). […] It can then be determined whether the order of administration of these agents is important in terms of modulating overall treatment responses.

[4] = system: MC1-R; assay: IC50 (M)
From the text: Table printed on a drawing sheet, FIG. 13F
as §1
The patent's description of the figure: FIGS. 13A-13F show characterization of a lead alpha-MSH peptide-linker conjugate. Structural schematics of representative alpha-MSH peptides. […] FIG. 13B, FIG. 13C each show second generation peptides with reduced hydrophobicity containing PEG2 and one Ahx spacer: (FIG. 13B) PEG2-Ahx-d-Lys-alpha-MSH (yellow closed circle in FIG. 13E); and (FIG. 13C) PEG2-d-Lys-Ahx-alpha-MSH (green triangle in FIG. 13E). […] FIG. 13E and FIG. 13F show IC50 determination of MC1-R targeting Re-cyclized and lactam-cyclized peptides.
First copying reader's note: IC50 values belong to the competitive binding curves of FIG. 13E on the same sheet.
Where the first naming reader finds the target: head: MC1-R-Targeting Peptide Linker Sequences

O=C(O)CC[C@H](NC(=O)N[C@@H](CCCCNC(=O)[C@H](Cc1ccc2ccccc2c1)NC(=O)[C@H]1CC[C@H](CNC(=O)CN2CCN(CC(=O)O)CCN(CC(=O)O)CCN(CC(=O)O)CC2)CC1)C(=O)O)C(=O)O [PSMA-617, hooc-Lys(-2Nal-Tran-DOTA)-'CO'-Glu-cooh]
IC50 [1]: 21 nM

CC(=O)N[C@@H](CS)C(=O)NCCCCCC(=O)NCCCCCC(=O)N[C@H](CCCCN)C(=O)NCCCCCC(=O)NCCCC[C@H](NC(=O)N[C@@H](CCC(=O)O)C(=O)O)C(=O)O [Prototype PSMAi, hooc-Lys(-Ahx-dLys(-nh2)-(Ahx)2-Cys-Ac)-'CO'-Glu-cooh]
IC50 [1]: 4.5 nM

O=C([O-])CN1CCN(CC(=O)[O-])CCN(CC(=O)NCC2CCC(C(=O)N[C@@H](Cc3ccc4ccccc4c3)C(=O)NCCCC[C@H](NC(=O)N[C@@H](CCC(=O)O)C(=O)O)C(=O)O)CC2)CCN(CC(=O)[O-])CC1.[177Lu+3] (stereo partly shown) [^177Lu-PSMA-617]
clinical response [2]: high response rate

O=C([O-])CC[C@H](NC(=O)N[C@@H](CCCCNC(=O)[C@H](Cc1ccc2ccccc2c1)NC(=O)[C@H]1CC[C@H](CNC(=O)CN2CCN(CC(=O)[O-])CCN(CC(=O)[O-])CCN(CC(=O)[O-])CC2)CC1)C(=O)[O-])C(=O)[O-].[225Ac].[H+].[H+].[H+] [^225Ac-PSMA-617]
salivary gland toxicity ([2]; 40 patients): frequent occurrence of severe xerostomia
patients who discontinued treatment due to xerostomia ([2]; clinical trial): ~23%
clinical response [2]: remarkable results

Clc1cccc(CN=C2Nc3ccccc3NC23CCNCC3)c1 [liproxstatin-1]
H&E staining of tumor tissue ([3]; after final dose): reversed
effect of i.p. liproxstatin-1 on particle-induced tumor volume drop ([3]; mouse, in vivo, ip): substantially attenuated

Ac-Cys-(Ahx)2-dLys-Re(CCMSH) [Prototype αMSH]
IC50 [4]: 7 nM

Ac-Cys-PEG2-dLys-Ahx-Nle-Re(CCMSH) [2nd gen αMSH (#2)]
IC50 [4]: 71 nM
